In US8415342B2, “Besifloxacin ophthalmic composition for the treatment or control of infection” (Bausch & Lomb Incorporated, priority 2008, dated 2013):
Converted amounts (≈) assume the structure as drawn. Read-outs that look alike come from different tables or passages of the source.

Assays:
Assay type in all cases: cell-based
[1] = system: Staphylococcus hominis; assay: MIC of clinical trial isolates, Studies 373, 433, 434; conditions: N 9
[2] = system: Staphylococcus lugdunensis; assay: as above; conditions: N 8
[3] = system: Streptococcus salivarius; assay: as above; conditions: N 9
[4] = system: S. epidermidis; assay: as above; conditions: Staphylococcus epidermidis
[5] = system: baseline pathogens of bacterial conjunctivitis patients; assay: MIC of baseline clinical trial isolates, Studies 373, 433, 434 (all species)
[6] = system: S. aureus; assay: MIC of clinical trial isolates, Studies 373, 433, 434; conditions: Staphylococcus aureus
[7] = system: Streptococcus oralis; assay: as above; conditions: N 18
Protocol: (§1) PFGE testing was performed per standard procedures.
(§2) The antibacterial susceptibility profile of each Visit 1 bacterial isolate was determined for besifloxacin and other antimicrobials.

[8] = system: S. pneumoniae; assay: as above; conditions: Streptococcus pneumoniae, all phenotypes, N 302
Protocol: as §1, §2

[9] = system: H. influenzae; assay: as above; conditions: Haemophilus influenzae, all phenotypes, N 344
Protocol: as §1, §2

[10] = system: S. mitis group; assay: as above; conditions: Streptococcus mitis group, N 45
Protocol: as §1, §2

[11] = system: CDC coryneform group G; assay: as above; conditions: N 29
Protocol: as §1, §2

[12] = system: Streptococcus mitis; assay: as above; conditions: Streptococcus mitis (listed separately from S. mitis group), N 20
Protocol: PFGE testing was performed per standard procedures. […] Analysis Populations

[13] = system: Corynebacterium pseudodiphtheriticum; assay: as above; conditions: N 8
[14] = system: Corynebacterium striatum; assay: as above; conditions: N 8
[15] = system: Legionella pneumophila; assay: microbe, parasite or virus in culture; conditions: Legionella pneumophila
[16] = system: Lancefield group C, F, G streptococci; assay: MIC, CLSI broth microdilution, clinical isolates; conditions: G streptococci (N = 50)
[17] = system: Staphylococcus hominis; assay: MIC, CLSI broth microdilution, clinical isolates; conditions: Staphylococcus hominis (N = 50)
[18] = system: Morganella morganii; assay: MIC, CLSI broth microdilution, clinical isolates; conditions: Morganella morganii (N = 51)
[19] = system: Viridans streptococci; assay: MIC, CLSI broth microdilution, clinical isolates; conditions: Viridans streptococci (N = 156)
[20] = system: Klebsiella oxytoca; assay: MIC, CLSI broth microdilution, clinical isolates; conditions: Klebsiella oxytoca (N = 50)
[21] = system: Citrobacter koseri; assay: MIC, CLSI broth microdilution, clinical isolates; conditions: Citrobacter koseri (N = 100)
[22] = system: S. pneumoniae; assay: MIC and MBC:MIC ratio, recent ocular isolates; conditions: S. pneumoniae (N = 35), recent ocular isolates
[23] = system: H. influenzae; assay: MIC and MBC:MIC ratio, recent ocular isolates; conditions: H. influenzae (N = 40), recent ocular isolates
Description: (§3) The success of in vivo antimicrobial action depends to a large extent on the host's defense mechanisms, which ultimately sequester and kill the microorganisms that have been reduced by the bacteriostatic/bactericidal action of the antibacterial agent. Thus, it is also of interest to profile the bactericidal activity of antimicrobial agents. The assessment of in vitro bactericidal activity can be accomplished in multiple ways, for example, the time-kill method or the determination of the minimum bactericidal concentration (MBC). […] Bactericidal agents are characterized by low MBC:MIC ratios.

[24] = system: S. epidermidis; assay: MIC and MBC:MIC ratio, recent ocular isolates; conditions: Staphylococcus epidermidis; S. epidermidis (N = 15), recent ocular isolates
Description: as §3

[25] = system: E. coli topoisomerase mutants; assay: MIC against defined topoisomerase mutants; conditions: Escherichia coli
Protocol: Furthermore, an experiment was conducted to assess the mechanism of action of besifloxacin in S. pneumoniae, S. aureus, and E. coli via step selections for isolates with decreased susceptibility to besifloxacin, as well as by testing for altered susceptibilities of ciprofloxacin-resistant variants of all three species containing genetically defined mutations in the quinolone resistance determining regions (QRDRs) of structural genes encoding DNA gyrase and topoisomerase IV (Table 2).

[26] = system: Staphylococcus haemolyticus; assay: MIC, CLSI broth microdilution, clinical isolates; conditions: Staphylococcus haemolyticus (N = 101)
[27] = system: S. pneumoniae topoisomerase mutants; assay: MIC against defined topoisomerase mutants; conditions: Streptococcus pneumoniae
[28] = system: Moraxella catarrhalis; assay: MIC, CLSI broth microdilution, clinical isolates; conditions: Moraxella catarrhalis (N = 101)
[29] = system: S. aureus; assay: MIC and MBC:MIC ratio, recent ocular isolates; conditions: Staphylococcus aureus; S. aureus (N = 30), recent ocular isolates
[30] = system: Staphylococcus warneri; assay: MIC, CLSI broth microdilution, clinical isolates; conditions: Staphylococcus warneri (N = 50)
[31] = system: S. aureus topoisomerase mutants; assay: MIC against defined topoisomerase mutants; conditions: Staphylococcus aureus

CC[C@H]1OC(=O)[C@H](C)[C@@H](O[C@H]2C[C@@](C)(OC)[C@@H](O)[C@H](C)O2)[C@H](C)[C@@H](O[C@@H]2O[C@H](C)C[C@H](N(C)C)[C@H]2O)[C@](C)(O)C[C@@H](C)CN(C)[C@H](C)[C@@H](O)[C@]1(C)O [AZITH]
MIC50 [1]: 4 µg/mL | MIC50 [2]: 0.5 µg/mL | MIC50 [3]: 8 µg/mL | MIC50 ([4]; all phenotypes, N 111): 1 µg/mL | MIC90 ([4]; all phenotypes, N 111): >8 µg/mL | MIC50 ([5]; All organisms, N 1324): 2 µg/mL | MIC90 ([5]; All organisms, N 1324): >8 µg/mL | MIC50 ([5]; Gram-negative, N 438): 2 µg/mL | MIC90 ([5]; Gram-negative, N 438): >8 µg/mL | MIC50 ([5]; Gram-positive, N 886): 1 µg/mL | MIC90 ([5]; Gram-positive, N 886): >8 µg/mL | MIC50 ([6]; all phenotypes, N 190): 2 µg/mL | MIC90 ([6]; all phenotypes, N 190): >8 µg/mL | MIC50 [7]: 4 µg/mL | MIC90 [7]: >8 µg/mL | MIC90 [8]: >8 µg/mL | MIC50 [9]: 2 µg/mL | MIC90 [9]: 4 µg/mL | MIC50 [10]: 2 µg/mL | MIC90 [10]: 8 µg/mL | MIC90 [11]: >8 µg/mL | MIC50 [12]: 2 µg/mL | MIC90 [12]: 4 µg/mL | MIC Range [12]: 0.06 to 8 µg/mL | MIC50 [13]: >8 µg/mL

N[C@@H]1CCCCN(c2c(F)cc3c(=O)c(C(=O)O)cn(C4CC4)c3c2Cl)C1 [BESI]
MIC50 [1]: 0.06 µg/mL | MIC Range [1]: 0.03 to 0.5 µg/mL | MIC50 [2]: 0.125 µg/mL | MIC Range [2]: 0.06 to 0.5 µg/mL | MIC50 [14]: 0.015 µg/mL | MIC Range [14]: 0.015 to 0.25 µg/mL | MIC50 [3]: 0.125 µg/mL | MIC Range [3]: 0.06 to 0.25 µg/mL | MIC50 ([4]; all phenotypes, N 111): 0.06 µg/mL | MIC90 ([4]; all phenotypes, N 111): 0.5 µg/mL | MIC Range ([4]; all phenotypes, N 111): 0.03 to 4 µg/mL | MIC50 ([5]; All organisms, N 1324): 0.06 µg/mL | MIC90 ([5]; All organisms, N 1324): 0.25 µg/mL | MIC Range ([5]; All organisms, N 1324): 8 to 8000 ng/mL | MIC50 ([5]; Gram-negative, N 438): 0.03 µg/mL | MIC90 ([5]; Gram-negative, N 438): 0.5 µg/mL | MIC Range ([5]; Gram-negative, N 438): 8 to 8000 ng/mL | MIC50 ([5]; Gram-positive, N 886): 0.06 µg/mL | MIC90 ([5]; Gram-positive, N 886): 0.25 µg/mL | MIC Range ([5]; Gram-positive, N 886): 8 to 8000 ng/mL | MIC50 ([6]; all phenotypes, N 190): 0.03 µg/mL | MIC90 ([6]; all phenotypes, N 190): 0.5 µg/mL | MIC Range ([6]; all phenotypes, N 190): 8 to 8000 ng/mL | MIC50 [7]: 0.125 µg/mL | MIC90 [7]: 0.25 µg/mL | MIC Range [7]: 0.015 to 0.25 µg/mL | MIC50 [8]: 0.06 µg/mL | MIC90 [8]: 0.125 µg/mL | MIC Range [8]: 0.03 to 0.25 µg/mL | MIC50 [9]: 0.03 µg/mL | MIC90 [9]: 0.06 µg/mL | MIC Range [9]: 8 to 500 ng/mL | MIC50 [10]: 0.125 µg/mL | MIC90 [10]: 0.25 µg/mL | MIC Range [10]: 0.03 to 1 µg/mL | MIC50 [11]: 0.015 µg/mL | MIC90 [11]: 0.125 µg/mL | MIC Range [11]: 8 to 2000 ng/mL | MIC50 [12]: 0.125 µg/mL | MIC90 [12]: 0.125 µg/mL | MIC Range [12]: 0.06 to 0.25 µg/mL | MIC50 [13]: 0.25 µg/mL | MIC Range [13]: 0.015 to 0.25 µg/mL

COc1c(N2C[C@@H]3CCCN[C@@H]3C2)c(F)cc2c(=O)c(C(=O)O)cn(C3CC3)c12 [Moxifloxacin]
MIC50 [15]: 0.03 µg/mL (≈ 0.0747 µM) | MIC90 [15]: 0.06 µg/mL (≈ 0.149 µM) | MIC Range [16]: 0.03 to 1 µg/mL | MIC50 ([16]; read-out: MIC50): 0.12 µg/mL (≈ 0.299 µM) | MIC90 ([16]; read-out: MIC90): 0.12 µg/mL (≈ 0.299 µM) | MIC90 ([4]; MRSE, S. epidermidis MRSE-CR, N 24, read-out: MIC90): > 8 µg/mL | MIC90 ([4]; S. epidermidis MSSE-CR, N 10, read-out: MIC90): 8 µg/mL | MIC50 [17]: 1 µg/mL (≈ 2.49 µM) | MIC90 [17]: 4 µg/mL (≈ 9.96 µM) | MIC90 [18]: > 8 µg/mL | MIC Range [19]: 0.03 to 4 µg/mL | MIC50 ([19]; read-out: MIC50): 0.12 µg/mL (≈ 0.299 µM) | MIC50 [20]: 0.06 µg/mL (≈ 0.149 µM) | MIC90 [20]: 2 µg/mL (≈ 4.98 µM) | MIC Range [20]: 0.03 to 8 µg/mL | MIC90 ([5]; clinical isolates from Asia): 2 µg/mL | MIC50 [21]: 0.03 µg/mL (≈ 0.0747 µM) | MIC Range [22]: 0.03 to 2 µg/mL | MIC50 ([22]; Streptococcus pneumoniae): 0.06 µg/mL | MIC90 ([22]; Streptococcus pneumoniae): 0.12 µg/mL | MIC Range [23]: 8 to 30 ng/mL | MIC50 ([23]; Haemophilus influenzae): 0.015 µg/mL | MIC90 ([23]; Haemophilus influenzae): 0.03 µg/mL | MIC50 [24]: 0.06 µg/mL | MIC90 [24]: > 8 µg/mL | MIC ([25]; E. coli Wild type): 0.06 µg/mL (≈ 0.149 µM) | MIC ([25]; E. coli gyrA D87Y (or S83L)): 0.5 µg/mL (≈ 1.25 µM) | MIC ([25]; E. coli gyrA S83L + parC S80R): 4 µg/mL | MIC ([25]; E. coli gyrA S83L + parE H445L): 0.5 µg/mL | MIC ([25]; E. coli gyrB D426N): 0.12 µg/mL (≈ 0.299 µM) | MIC50 [26]: 1 µg/mL (≈ 2.49 µM) | MIC90 [26]: 8 µg/mL (≈ 19.9 µM) | MIC ([27]; S. pneumoniae Wild type): 0.25 µg/mL (≈ 0.623 µM) | MIC ([27]; S. pneumoniae gyrA S81F): 0.5 µg/mL (≈ 1.25 µM) | MIC ([27]; S. pneumoniae parC S79Y): 0.25 µg/mL (≈ 0.623 µM) | MIC ([27]; S. pneumoniae parC S79Y + gyrA S81F): 4 µg/mL | MIC90 ([6]; MRSA, S. aureus MRSA-CS, N 9, read-out: MIC90 (due to limited isolates, highest MIC value is given)): 0.06 µg/mL | MIC50 [28]: 0.03 µg/mL (≈ 0.0747 µM) | MIC90 [28]: 0.03 µg/mL (≈ 0.0747 µM) | MIC Range [28]: 0.015 to 0.12 µg/mL | MIC50 [29]: 0.06 µg/mL | MIC50 [30]: 0.06 µg/mL (≈ 0.149 µM) | MIC90 [30]: 4 µg/mL (≈ 9.96 µM) | MIC ([31]; S. aureus Wild type): 0.06 µg/mL (≈ 0.149 µM) | MIC ([31]; S. aureus parC S80F (or E84K)): 0.5 µg/mL (≈ 1.25 µM) | MIC ([31]; S. aureus parC S80F + gyrA S84L): 2 µg/mL
